This is an account of results in ChEMBL document CHEMBL1137198, “Discovery of thiadiazoles as a novel structural class of potent and selective PDE7 inhibitors. Part 2: metabolism-directed optimization studies towards orally bioavailable derivatives” (Bioorg Med Chem Lett, 2004).

Converted amounts (≈) assume the structure as drawn.

A short description of data set [1]: Solubility at pH 7.4. The format is physicochemical. Conditions: buffer.
Data set [2] is described as follows: Clearance at 0.5 mg/kg i.v. Conditions: in vivo, iv. The format is ADME, organism-based. Further details: dose 0.5 mg/kg, route intravenous.
Data set [3] in a line: Reduction in Clearance when compared with compound 1. It is filed as ADME, organism-based. The settings on record: in vivo.
A short description of data set [4]: Volume of distribution at 0.5 mg/kg i.v. The format is ADME, organism-based. The settings on record: in vivo, iv. Also noted: dose 0.5 mg/kg, route intravenous.
Data set [5] in a line: Half life at 2.5 mg/kg po. Also noted: dose 2.5 mg/kg. It is filed as ADME, organism-based. Conditions: in vivo.
Data set [6] is described as follows: Oral bioavailability (dose 2.5 mg/kg). It is filed as ADME, organism-based. The settings on record: eutheria, in vivo.
Data set [7] can be described thus: Reduction in clearance when compared with compound 1. Conditions: in vivo. It is filed as ADME, organism-based.
Data set [8] in a line: Inhibition of human Phosphodiesterase 7A1 or human phosphodiesterase 4D3 expressed in baculovirus infected Sf9 cells.

As a reminder, the solubility is the dissolved amount per volume that the medium holds. The term clearance denotes a measure of how efficiently the substance is removed, as volume per time. What is called Vd is the apparent volume that relates the amount in the body to the concentration in plasma or blood. As usually defined, the half-life is the time in which the quantity being followed falls by half. Low readings indicate rapid decline, high ones slow decline. What is called bioavailability is dose-corrected exposure relative to a reference, in per cent. Lower therefore signals poor availability. Take `Cn1nc(-c2ccc(C(=O)NC(C)(C)CO)cc2)s/c1=N\C1CCCC(O)C1` (centres undefined): in data set [1] (read-out: Solubility), the solubility is 58 µg/mL (≈ 143 µM). Besides, in data set [2], the clearance came to 24.9 mL/min/kg. The CL_Ratio in data set [3] is reported as 86%. Also, in data set [4] (read-out: Vd), the distribution volume (Vd) is 0.43 L/kg. This compound also gave a half-life in data set [5] of 0.46 h. In data set [6], this compound registered a bioavailability of 63%.

For `Cn1nc(-c2cccc(C#N)c2)s/c1=N\c1cccc(C(=O)O)c1`, the solubility in data set [1] (read-out: Solubility) was found to be 295 µg/mL (≈ 877 µM). Also, the clearance in data set [2] turned out to be 2.65 mL/min/kg. Further, in data set [4] (read-out: Vd), the volume of distribution (Vd) amounted to 0.99 L/kg. For the same compound, the half-life in data set [5] was 4.75 h. In data set [6], this compound returned a bioavailability of 37%.

As for `Cn1nc(-c2ccc(Cl)cc2)s/c1=N\c1ccc(F)c(C(=O)O)c1`, in data set [1] (read-out: Solubility), the solubility worked out at 145 µg/mL (≈ 399 µM). Also, the clearance in data set [2] amounted to 3.9 mL/min/kg. Moreover, the Vd in data set [4] (read-out: Vd) was 0.18 L/kg. In addition, the half-life in data set [5] was 1.96 h. In addition, the bioavailability in data set [6] came out at 49.3%.

In the case of `Cn1nc(-c2ccc(C(N)=O)cc2)s/c1=N\C1CCCCC1`, the solubility in data set [1] (read-out: Solubility) came out at 4 µg/mL (≈ 12.6 µM). This compound also returned a clearance in data set [2] of 179 mL/min/kg. The volume of distribution (Vd) in data set [4] (read-out: Vd) is 7.65 L/kg.

As to `CN1CCN(C(=O)c2ccc(-c3nn(C)/c(=N/C4CCCCC4)s3)cc2)CC1`, the solubility in data set [1] (read-out: Solubility) is 350 µg/mL (≈ 876 µM). Further, the clearance in data set [2] is 44.8 mL/min/kg. In addition, in data set [3], the CL_Ratio is 75%. Besides, the volume of distribution (Vd) in data set [4] (read-out: Vd) worked out at 2.59 L/kg. Further, the half-life in data set [5] is 1.37 h. In addition, in data set [6], the bioavailability amounted to 85%.

On to `Cn1nc(-c2ccc(S(C)(=O)=O)cc2)s/c1=N\c1cccc(C(=O)O)c1`, for which the solubility in data set [1] (read-out: Solubility) came to 370 µg/mL (≈ 950 µM). In data set [2], this compound had a clearance of 15.8 mL/min/kg. For the same compound, the Vd in data set [4] (read-out: Vd) was determined as 7.58 L/kg. For the same compound, in data set [5], the half-life is 2.7 h. Further, in data set [6], the bioavailability came out at 29.3%.

Compound `Cn1nc(-c2ccc(S(C)(=O)=O)cc2)s/c1=N\C1CCCC(O)C1` (stereo in doubt; 21a 9(R,R)) had a solubility in data set [1] of 160 µg/mL (≈ 435 µM). The Cl in data set [2] was found to be 15.1 mL/min/kg. Also, the CL_Ratio in data set [3] stood at 91%. Moreover, the Vd in data set [4] worked out at 0.62 L/kg. The same compound displayed a T1/2 in data set [5] of 2.5 h.

Take `CC(=O)Nc1ccc(-c2nn(C)/c(=N/C3CCCC(O)C3)s2)cc1` (trans isomer): in data set [1] (read-out: Solubility), the solubility stood at 350 µg/mL (≈ 1010 µM). This compound had a clearance in data set [2] of 13.3 mL/min/kg. Moreover, the CL_Ratio in data set [3] came to 92%. For the same compound, the Vd in data set [4] (read-out: Vd) worked out at 2.02 L/kg. In data set [5], this compound had a half-life of 2.3 h. Besides, the bioavailability in data set [6] amounted to 76%.

Turning to `Cn1nc(-c2ccc(S(C)(=O)=O)cc2)s/c1=N\C1CCCC(O)C1` (stereo in doubt), the solubility in data set [1] (read-out: Solubility) was determined as 135 µg/mL (≈ 367 µM). This compound also yielded a clearance in data set [2] of 12.2 mL/min/kg. In data set [3], the CL_Ratio was determined as 93%. The distribution volume (Vd) in data set [4] (read-out: Vd) was 0.92 L/kg. Also, the half-life in data set [5] was 2 h. This compound also showed a bioavailability in data set [6] of 100%.

On to `CC(=O)Nc1ccc(-c2nn(C)/c(=N/C3CCCCC3)s2)cc1`, for which the solubility in data set [1] (read-out: Solubility) was determined as 8 µg/mL (≈ 24.2 µM). In data set [2], this compound had a clearance of 74.7 mL/min/kg. In addition, the CL_Ratio in data set [3] is 58%. Also, the Vd in data set [4] (read-out: Vd) was determined as 3.3 L/kg. In data set [5], this compound had a half-life of 0.74 h. The same compound registered a bioavailability in data set [6] of 19.6%.

Turning to `Cn1nc(-c2ccc(C(N)=O)cc2)s/c1=N\C1CCC(O)CC1` (centres undefined), the clearance in data set [2] was 66.9 mL/min/kg. In addition, the CL_Ratio in data set [7] is 62%. Moreover, the volume of distribution (Vd) in data set [4] (read-out: Vd) came out at 0.98 L/kg. This compound also gave a half-life in data set [5] of 0.27 h. In data set [6], the bioavailability came out at 7%.

The compound `Cn1nc(-c2ccc(C(N)=O)cc2)s/c1=N\C1CCCCC1O` (stereo in doubt; trans) came in with a clearance in data set [2] of 38.2 mL/min/kg. Further, the CL_Ratio in data set [7] was 79%. The Vd in data set [4] (read-out: Vd) came out at 1.47 L/kg. In data set [5], this compound gave a half-life of 0.31 h. This compound returned a bioavailability in data set [6] of 24.7%.

A word on the IC50: it is the concentration that gives 50% inhibition. With `Cn1nc(-c2ccc(C(N)=O)cc2)s/c1=N\C1CCCC(O)C1` (stereo in doubt; cis), the IC50 in data set [8] is 1.65 µM. In data set [2], the clearance stood at 34.4 mL/min/kg. For the same compound, the CL_Ratio in data set [7] came out at 81%. In addition, the distribution volume (Vd) in data set [4] (read-out: Vd) turned out to be 1.39 L/kg. Moreover, the half-life in data set [5] is 1.42 h. The F in data set [6] was 61.2%.

As for `Cn1nc(-c2ccc(C(N)=O)cc2)s/c1=N\C1CCCC(O)C1` (stereo in doubt; trans), the Cl in data set [2] amounted to 59.9 mL/min/kg. The CL_Ratio in data set [7] was determined as 67%. This compound also returned a distribution volume (Vd) in data set [4] of 1.78 L/kg. Also, the T1/2 in data set [5] amounted to 1.8 h. This compound also displayed a F in data set [6] of 38.5%.
